11 compounds from patent publication US9061994B1, “Materials and methods useful to induce vacuolization, cell death, or a combination thereof” (The University of Toledo, priority 2011, dated 2015) can be followed below.

In series [1] the test system is U251 glioblastoma cells. Put plainly: Sulforhodamine B (SRB) growth inhibition assay. It counts as cell-based, human. To be noted: U251; 48 h SRB; Table 1, Table 2 (FIG. 64), FIG. 63. Here is the method:
Cells experiencing methuosis initially undergo extreme cytoplasmic vacuolization which can be readily assessed by phase contrast microscopy. As viability is compromised (usually between 24-48 h), the cells detach from the culture surface and lose membrane integrity. […] Although methuosis can occur in a broad spectrum of human tumor cell lines, SAR studies were carried out with U251 glioblastoma cells. Therefore, this cell line was used in the present evaluation.
Total protein in adherent cells was measured by the sulforhodamine B (SRB) colorimetric assay, following standard procedures for anticancer drug screening used by the U.S. National Cancer Institute. […] On the day after plating, four wells were assayed to establish a pre-drug (time-0) baseline. Test compounds were diluted as described above and added to the remaining wells. The medium and compounds were replenished after 24 hr. SRB assays were performed at a 48 h endpoint as described, using a SpectraMax Plus 384 plate reader (Molecular Devices, Sunnyvale, Calif.) to determine absorbance at 515 nm.
Cells were seeded in 96-well plates as described in the methods. After 24 h, each compound was added at the indicated concentrations and SRB assays were performed after an additional 48 h. Each point represents the mean±SD of values from four wells. The dotted line on each graph indicates the average absorbance of four wells sampled at time-0 (i.e., the time that the compounds were added).
The human U251 glioblastoma cell line was obtained from the DCT Tumor Repository (National Cancer Institute, Fredrick, Md.). […] All test compounds were dissolved in DMSO and serially diluted in DMSO so that the desired final drug concentrations could be achieved by making a 1/1000 dilution into the culture medium. One day after plating, four wells were assayed to establish a pre-drug (time-0) baseline. At the same time, fresh medium containing test compounds was added to the remaining wells. Control wells received DMSO alone. SRB assays were performed at a 48 h endpoint. To minimize the impact of potential variations in stability among the compounds, medium with test compound was replenished after the first 24 h.

In series [2] the test system is U251 glioblastoma cells. Put plainly: Cell morphology / vacuolization by phase-contrast microscopy. Particulars: concentration not singled out ([…] and 10 μM or as in figure). It counts as cell-based, human.
In series [3] the test system is U251 glioblastoma cells. Put plainly: Classification by cellular phenotype induced in cultured cells. The series is classed as cell-based, human. To be noted: FIG. 72.
Series [4] deals with U251 glioblastoma cells. In words: Cell cycle analysis by flow cytometry (DNA histograms). It counts as cell-based, human. Particulars: 24 h, 3 μM (FIGS. 69A-69B). On the technique in general: Flow cytometry measures light scatter and fluorescence of single cells or particles in a stream.
Series [5] can be described thus: Stability on storage in DMSO (1H NMR). The series is classed as physicochemical. The text has this:
Derivatives substituted with hydroxyl-functionality were synthesized based upon the results obtained in previous SAR studies for 2-substituted indole. Subtle chemical modifications at this position can alter activity, and are sensitive to both steric and electronic properties. […] Previously prepared intermediate ethyl 5-methoxyindole-2-carboxylate (302) was reduced by LAH to 425, which was then protected by acetylating the primary hydroxyl group (426). The acetyl group was then hydrolyzed during the alkaline conditions used to quench the acidic reagents generated during Vilsmeier's step that produce aldehyde 427. […] Alcohol 425 was oxidized to 5-methoxyindole-2-carboxaldehyde (428) by MnO2 in EtOAc heated to reflux. The aldehyde was subjected toWittig conditions using phosphonium ylide (Ph3CHCO2C2H5) to produce the α,β-unsaturated ester 429, which was reduced to 2-hydroxypropylindole 430 using excess LAH. The primary hydroxyl group was protected as the O-acetate (431) under conditions of excess acetic anhydride, TEA and CH3CN. […] As anticipated, the O-acetyl group was hydrolyzed under these conditions.
5-Methoxy-2-hydroxymethylindole-3-carboxaldehyde 427 (75 mg, 0.37 mmol), 4-acetylpyridine (118 mg, […]), and piperidine (82.6 mg, […]) were dissolved in methanol (1 mL) and heated to reflux. The reaction mixture was stirred for 45 min during which the solution became bright orange. The flask was then removed from heat and allowed to stir for 1 h. A precipitate formed which was collected, washed with ice-cold MeOH (5 mL) and dried in a vacuum desiccator for 24 h to yield an orange solid (28 mg, 24%). mp 229-230° C. TLC Rf 0.65 (6% MeOH/DCM), 0.21 (80% EtOAc/hexanes). […] 13C NMR (150 MHz, d6-DMSO) δ 188.2, 155.2, 150.6, 148.0, 145.0, 139.3, 131.0, 126.7, 121.4, 113.8, 113.0, 111.6, 108.3, 103.4, 55.57, 55.32. Elemental analysis calculated for C18H16N2O3.0.033 MeOH: C, 70.00; H, 5.26; N, 9.05. Found: C, 69.61; H, 5.09; N, 8.90. […] When stored in its isolated precipitate form, this compound is stable.

Series [6] has as its system U251 glioblastoma cells. In words: Effect of filipin, bafilomycin A1 or EHT 1864 on MIPP-induced vacuoles. The series is classed as cell-based, human. Particulars: 10 μM MIPP with 12 μg/ml filipin, 0.1 μM bafilomycin A1 or 25 μM EHT 1864. Here is the method:
To inhibit clathrin-independent endocytosis, U251 cells were washed twice with serum-free DMEM, then pretreated for 30 min with DMEM+0.5% BSA in the presence or absence of 12 μg/ml filipin. Following the pretreatment, MIPP was added to the dishes at a final concentration of 10 μM and phase-contrast images were acquired 100 min later. To inhibit the vacuolar-type H^+ ATPase, U251 cells were pretreated for 1 h with 0.1 μM bafilomycin A1 or an equivalent volume of DMSO. At the end of the hour, 10 μM MIPP, or an equivalent volume of DMSO, was added without a medium change. Phase-contrast images of the cells were acquired 1 h after the addition of MIPP. […] The percentage of vacuolated cells in the population was determined by scoring at least 100 cells in multiple phase-contrast photomicrographs for each condition. Cells containing three or more phase-lucent vacuoles with diameters ≧0.5 μm or >10 smaller vacuoles (0.1-0.5 μm) were scored as positive. For comparison, the effect of EHT 1864 on Ras-induced vacuolization was also determined. […] After 24 h, phase-contrast images were taken and the number of vacuolated cells was scored as described above.

For a further series, the target named is T1, porcine tubulin (Sus scrofa, UniProt P02550+P02554).
T1 construct: purchased Cytoskeleton, Inc. BK011P
In words: Cell-free fluorescence-based tubulin polymerization assay. The series is classed as biochemical. Particulars: final concentration 3 μM (FIG. 61).

The nature of series [7]: Stability during workup, manipulation or storage. It counts as physicochemical. Particulars: among ester series 120, 125, 310, 309. As to the method: Expanding previous SAR studies of 2-indolyl alkyl substitutions, additional functionalized probes were prepared as depicted in Schemes 4-7. […] Excellent regioselectivity was achieved by the di-lithio species derived from 418 and sec-butyllithium in THF at −40° C. Cyclization and deprotection occurred in a one-pot fashion with excess TFA affording 5-methoxy-2-trifluoromethylindole (203). Synthesis of aldehyde 204 and condensation to the final trifluoromethyl target 124 were accomplished by standard methods. Alkyl carboxylates (301-304) were synthesized from commercially available acid 300 by Fisher esterification conditions using their corresponding alcohols (Scheme 4E, FIG. 78). Formylation reactions to yield aldehydes 305-308, followed by Claisen-Schmidt condensation to provide 120, 125, 310, 309, were conducted as previously described. […] Without wishing to be bound by theory, it is believed this is owing to its better leaving group among this series.

T1 sequence (P02550 whole entry): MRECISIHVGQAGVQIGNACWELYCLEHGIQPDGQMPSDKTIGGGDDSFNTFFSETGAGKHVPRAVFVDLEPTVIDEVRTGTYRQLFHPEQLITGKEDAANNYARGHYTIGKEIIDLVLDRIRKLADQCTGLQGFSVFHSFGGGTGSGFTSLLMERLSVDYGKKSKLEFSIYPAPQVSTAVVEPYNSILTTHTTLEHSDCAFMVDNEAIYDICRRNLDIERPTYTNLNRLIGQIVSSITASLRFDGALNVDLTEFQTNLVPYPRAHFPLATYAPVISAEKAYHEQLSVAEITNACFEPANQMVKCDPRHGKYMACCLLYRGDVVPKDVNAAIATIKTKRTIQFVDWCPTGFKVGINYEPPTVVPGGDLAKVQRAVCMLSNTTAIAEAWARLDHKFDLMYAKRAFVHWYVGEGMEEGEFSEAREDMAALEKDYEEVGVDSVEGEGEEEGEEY
T1 sequence (P02554 whole entry): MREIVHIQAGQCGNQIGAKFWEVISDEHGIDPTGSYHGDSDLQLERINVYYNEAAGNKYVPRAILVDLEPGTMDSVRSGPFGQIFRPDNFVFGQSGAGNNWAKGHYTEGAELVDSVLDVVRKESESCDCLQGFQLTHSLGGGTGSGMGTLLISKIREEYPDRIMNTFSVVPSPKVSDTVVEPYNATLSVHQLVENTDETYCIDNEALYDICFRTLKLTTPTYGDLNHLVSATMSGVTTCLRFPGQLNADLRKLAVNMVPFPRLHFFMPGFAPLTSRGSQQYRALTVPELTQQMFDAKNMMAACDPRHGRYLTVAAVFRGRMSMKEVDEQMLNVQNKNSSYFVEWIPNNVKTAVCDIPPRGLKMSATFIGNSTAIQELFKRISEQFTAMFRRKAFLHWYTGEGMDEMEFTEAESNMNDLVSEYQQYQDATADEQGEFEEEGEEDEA

For “3-(2-hydroxypropyl-5-methoxy-indole-3-yl)-1-(4-pyridinyl)-2-propen-1-one [402q]”, the “growth inhibitory (GI) activity, in words” value in the series on U251 glioblastoma cells [1] was “GI values in the low micromolar range”. Also, the “cell morphology / vacuolization” value with U251 glioblastoma cells [2] is given as “extensive accumulation of large cytoplasmic vacuoles, with loss of viable adherent cells at concentrations >2.5 μM”. The “class of cellular phenotype” value in the series with U251 glioblastoma cells [3] was “Class 2”.

In the case of `COc1ccc2[nH]c(C(=O)[O-])c(/C=C/C(=O)c3ccncc3)c2c1.[Na+]` [402o, sodium trans-3-(5-methoxyindol-2-carboxylate-3-yl)-1-(4-pyridinyl)-2-propen-1-one], the “growth inhibitory (GI) activity, in words” value in the series with U251 glioblastoma cells [1] is “either markedly attenuated or completely eliminated”. For the same compound, the “cell cycle distribution (G2/M, sub-G1/G0)” value in the series on U251 glioblastoma cells [4] is “no detectable effect on cell cycle distribution”. `COc1ccc2[nH]c(CO)c(C=CC(=O)c3ccncc3)c2c1` [402p, 3-(2-hydroxymethyl-5-methoxy-1H-indole-3-yl)-1-(4-pyridinyl)-2-propen-1-one]: the “stability in DMSO, in words” value in series [5] (storage in DMSO) is “unstable when stored at rt in DMSO for 48 h”. Further, in series [5] (stored in d6-DMSO, after 48 h, 1H NMR), the degraded was approximately 50%. Moreover, the “stability as isolated precipitate” value in series [5] (stored in its isolated precipitate form) is given as “stable”. In the case of `CO/C1=C\C(C)=C\[C@@H](C)[C@@H](O)[C@@H](C)C/C(C)=C/C=C/[C@H](OC)[C@@H]([C@@H](C)[C@@H](O)[C@H](C)[C@@]2(O)C[C@@H](O)[C@H](C)[C@@H](C(C)C)O2)OC1=O` [Baf-A, bafilomycin A1], the “effect on induction of vacuoles by MIPP” value in the series with U251 glioblastoma cells [6] is reported as “completely abrogated the ability of the cells to generate vacuoles when they were exposed to MIPP”.

On to `O=c1cc(CN2CCOCC2)occ1OCCCCCSc1ccnc2cc(C(F)(F)F)ccc12` [EHT 1864], for which the “effect on induction of vacuoles by MIPP” value with U251 glioblastoma cells [6] is reported as “no detectable effect on vacuole formation”. For `COc1ccc2[nH]c(C)c(/C=C/C(=O)c3ccncc3)c2c1` [MOMIPP, trans-3-(5-methoxy-2-methyl-1H-indol-3-yl)-1-(4-pyridinyl)-2-propen-1-one], the “inhibition of tubulin polymerization” value at porcine tubulin is given as “superimposable with the DMSO control”.

On to `CN[C@H]1CCc2cc(OC)c(OC)c(OC)c2-c2ccc(OC)c(=O)cc21` [colcemid, reference compound], for which, in the series with U251 glioblastoma cells [4], the “cell cycle distribution (G2/M, sub-G1/G0)” value was “significantly decreased compared to the DMSO control (p≦0.05)”.

With `COc1ccc2[nH]c(C(F)(F)F)c(/C=C/C(=O)c3ccncc3)c2c1` [compound 124, trans-3-(5-methoxyindol-2-trifluoromethyl-3-yl)-1-(4-pyridinyl)-2-propen-1-one], the “inhibition of tubulin polymerization” value at porcine tubulin is listed as “partially inhibited tubulin polymerization”. `CCOC(=O)c1[nH]c2ccc(OC)cc2c1/C=C/C(=O)c1ccncc1` [compound 125, ethyl trans-3-(5-methoxyindol-2-carboxylate-3-yl)-1-(4-pyridinyl)-2-propen-1-one]: at porcine tubulin, the “inhibition of tubulin polymerization” value is “partially inhibited tubulin polymerization”. Regarding `COc1ccc2[nH]c(C(=O)OC(C)C)c(/C=C/C(=O)c3ccncc3)c2c1` [compound 309, isopropyl trans-3-(5-methoxyindol-2-carboxylate-3-yl)-1-(4-pyridinyl)-2-propen-1-one], the sensitivity to hydrolysis result in series [7] was “most sensitive to hydrolysis during workup and subsequent manipulation or storage”. Consider `CCCCC[C@@H](O)[C@H]1C(=O)O[C@H](C)[C@@H](O)/C=C/C=C/C=C/C=C/C=C(\C)[C@@H](O)C[C@H](O)C[C@H](O)C[C@H](O)C[C@H](O)C[C@H](O)C[C@@H]1O` [filipin], for which the “effect on induction of vacuoles by MIPP” value with U251 glioblastoma cells [6] is listed as “failed to show the typical morphological response to MIPP”.
